“Also recorded” adds a separate entry of the source. Where no end group is shown, it is not given here. [ ]: non-standard residue; d: D form. Lys(N3) = [N-]=[N+]=NCCCC[C@H](N)C(=O)O
What was measured:
[1] = biological target: T1, human NPY2-R (Homo sapiens, UniProt P49146); assay: FRET assay at Y2-R, mitigation of adenosine stimulated cAMP at the A2b receptor (EPAC2/H188, HEK293); type: cell-based
T1 construct: host or cells: HEK293 (H188 FRET reporter)
T1 sequence (P49146 1-381): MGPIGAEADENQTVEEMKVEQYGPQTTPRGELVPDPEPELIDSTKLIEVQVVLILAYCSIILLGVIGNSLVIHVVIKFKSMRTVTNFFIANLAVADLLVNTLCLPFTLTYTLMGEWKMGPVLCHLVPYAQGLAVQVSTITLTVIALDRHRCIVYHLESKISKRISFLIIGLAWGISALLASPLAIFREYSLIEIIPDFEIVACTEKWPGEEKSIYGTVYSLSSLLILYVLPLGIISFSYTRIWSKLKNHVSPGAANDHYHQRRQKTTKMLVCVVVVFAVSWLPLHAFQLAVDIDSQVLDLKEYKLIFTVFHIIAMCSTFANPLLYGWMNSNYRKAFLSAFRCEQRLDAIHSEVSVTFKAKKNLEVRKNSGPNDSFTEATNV

[2] = biological target: T2, human NPY1-R (Homo sapiens, UniProt P25929); assay: FRET assay at Y1-R, mitigation of adenosine stimulated cAMP at the A2b receptor (EPAC2/H188, HEK293); type: cell-based; details: cells expressing Y1-R, partial antagonist
T2 construct: host or cells: HEK293 (H188 FRET reporter)
T2 sequence (P25929 1-384): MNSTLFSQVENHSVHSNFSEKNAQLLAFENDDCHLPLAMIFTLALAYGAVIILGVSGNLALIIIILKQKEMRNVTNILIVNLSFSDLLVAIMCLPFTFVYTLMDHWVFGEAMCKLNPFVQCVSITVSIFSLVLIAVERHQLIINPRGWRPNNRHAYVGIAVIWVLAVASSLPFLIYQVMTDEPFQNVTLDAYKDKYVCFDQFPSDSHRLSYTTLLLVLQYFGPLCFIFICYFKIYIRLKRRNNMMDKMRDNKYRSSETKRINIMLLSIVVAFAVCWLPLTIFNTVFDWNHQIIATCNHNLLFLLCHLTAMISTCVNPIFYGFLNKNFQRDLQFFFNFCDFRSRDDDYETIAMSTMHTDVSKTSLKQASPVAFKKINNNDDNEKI

[3] = Dose escalation study, food intake in rats; type: in vivo, rat
Protocol: Dose Escalation Study. Lean Sprague Dawley rats (350 g) were individually housed in cages capable of recording food intake (Accuscan Diet cages). The animal room was maintained on a 12-h light/12-hour dark cycle. The study design consisted of sequential rounds of a 2-day baseline phase, a 2-day treatment phase, and a 2-day washout phase. Body weight was assessed daily just prior to the start of the dark cycle, food and kaolin intake were available ad libitum and consumption was continuously recorded. Treatment doses were administered just prior to the start of the dark cycle via subcutaneous injection.

[4] = IPGTT in shrews; type: in vivo, shrew
[5] = tested on: human islets; assay: Insulin release in human islets; type: cell-based
[6] = tested on: perifused isolated rat islets; assay: Cytokine-induced damage of perifused isolated rat islets (OCR, membrane permeability); type: cell-based; details: cytokines IFN-γ, TNF-α, IL-1β
Text: For this evaluation, a customized perifusion system was used that both maintains islet health while continuously assessing β-cell viability by OCR.

[7] = tested on: rat islets; assay: Insulin secretion rate in rat islet cell perifusion, exposure and washout; type: cell-based
[8] = tested on: rat pancreatic islets; assay: Static glucose stimulated insulin secretion (GSIS) in rat islets; type: cell-based; details: 10 mM glucose, 50 nM peptides
Protocol: Rat islet isolation and culture. Islets were harvested from Sprague-Dawley rats (approximately 250 g; Charles River) and anesthetized by intraperitoneal injection of pentobarbital sodium (150 mg/kg rat). Islets were prepared and purified as described^56. Islets were then cultured for 18 h in a 37° C., 5% CO2 incubator prior to the experiments in RPMI medium supplemented with 10% heat inactivated fetal bovine serum (Invitrogen). Static measurement of ISR. ISR was determined statically with multiple conditions, as described previously^57. Briefly, islets were handpicked into a petri dish containing KRB, 0.1% BSA, and 3 mM glucose and incubated at 37° C., 5% CO2 for 60 min. Subsequently, islets were picked into wells of 96-well plates containing desired amounts of glucose and agents as indicated and incubated for an additional 60 min. At the end of this period, supernatant was assayed for insulin.

[9] = biological target: human GLP-1R (Homo sapiens, UniProt P43220); assay: FRET reporter assay tracking cAMP stimulation at the GLP-1R (EPAC2/H188 sensor, HEK293 cells); type: cell-based; details: FIG. 7
Chain of human GLP-1R (P43220 24-463): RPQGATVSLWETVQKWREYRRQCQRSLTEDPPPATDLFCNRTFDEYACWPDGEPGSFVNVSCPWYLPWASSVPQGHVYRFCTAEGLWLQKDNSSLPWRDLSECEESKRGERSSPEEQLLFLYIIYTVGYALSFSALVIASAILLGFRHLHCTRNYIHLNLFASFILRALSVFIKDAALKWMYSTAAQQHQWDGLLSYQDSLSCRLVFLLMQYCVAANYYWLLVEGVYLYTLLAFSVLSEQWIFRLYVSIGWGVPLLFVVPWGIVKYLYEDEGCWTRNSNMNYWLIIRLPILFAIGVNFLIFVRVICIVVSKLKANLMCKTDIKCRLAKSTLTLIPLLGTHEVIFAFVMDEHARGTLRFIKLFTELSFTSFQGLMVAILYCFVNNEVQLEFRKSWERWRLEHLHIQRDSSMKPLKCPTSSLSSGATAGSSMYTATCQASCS

[10] = 5-day treatment in diet-induced obese (DIO) rats; type: in vivo, rat; details: diet-induced obese Sprague-Dawley rats, 10 nmol/kg once daily, 5 d
Text: Diet Induced Obese (DIO) rats. To generate DIO rats, young (4-wk of age) lean male Sprague Dawley rats (Charles River Laboratories, Inc. Wilmington, MA; strain code 001) were placed on a high fat diet (HFD; D12492, 60% kcal from fat, Research Diets, New Brunswick, NJ) for 4-5 months prior to the start of the experiments to attain >20% of body fat. During this time, animals had ad libitum access to food and water.
5-day Treatment in DIO rats. DIO Sprague Dawley rats (2 cohorts; 826.1 g n=9, and 642.3 g n=5) were individually housed and the animal room was maintained on a 12-h light/12-hour dark cycle. During the 5-day baseline phase, animals were administered vehicle (0.9% sterile saline solution, injectable) injections just prior to the start of the dark cycle. At the end of the baseline phase, animals were grouped based on body weight, average daily body weight gain, and food intake. […] Throughout the experiment, body weight and food intake (via hopper weighs) were assessed daily just prior to the start of the dark cycle. Fasting blood glucose was tested prior to the baseline phase and at the end of the treatment phase via handheld glucometer (One Tough Ultra).

[11] = Intraperitoneal glucose tolerance testing after 5-d treatment in rats; type: in vivo, rat; details: 10 nmol/kg, pre-diabetic (DIO) rats
Protocol: DIO Sprague Dawley rats (803.0±102.7 g n=7) were administered a pre-treatment IPGTT with a vehicle injection. Animals were grouped based on body weight, Lee Index (a measure of adiposity; lee index=weight1/3/nasoanal length), and baseline IPGTT blood glucose excursion. […] On treatment day 5, a repeat IPGTT was performed with the assigned treatment. All weights noted are mean±Std. Dev. Metabolic testing. Intraperitoneal glucose tolerance testing (IPGTT) was performed following a 6-h fast such that the glucose bolus occurred at the start of the dark cycle; all animal handling is performed under red light. […] A second baseline sample was obtained 30 minutes later, immediately prior to the dextrose bolus (1.5 g/kg dextrose, 20% solution). Additional blood glucose measurements were taken 7, 15, 30, 45, 60, and 120 minutes post-bolus. All blood glucose measurements were made via handheld glucometers (One Touch Ultra) in duplicate; if the variation between the two measures was >5%, a third measurement was taken.

| Compound | block of GEP44 agonism by antagonist at Y2-R ([1]; FRET, cells expressing Y2-R, potent antagonist) | block of GEP44 agonism by antagonist at Y1-R [2] | 2-d avg. FI ([3]; 10 nmol/kg/d, rats) [%] | reduction in food intake over 2 days ([3]; 20 nmol/kg daily, lean Sprague-Dawley rats) [%] | 2-d avg. FI ([3]; 30 nmol/kg/d, rats) [%] | reductions in FI ([3]; preliminary dose escalation studies, dose not stated) [%] | food intake (in words) ([3]; rats, dose escalation, 2-d on each dose) | glucoregulation (IPGTT) [4] | insulin release in human islets [5] | fall in cytokine-induced OCR [6] | insulin secretion rate (ISR) ([7]; acute exposure) | persistence of the effect on insulin secretion after washout ([7]; exposure and washout) | signalling via the Y2-R, cAMP production ([1]; FIG. 7) | glucose stimulated insulin secretion (GSIS), as ISR [8] | signalling via the GLP-1R, cAMP production [9] | body weight [10] | fasting blood glucose [10] | food intake [10] | blood glucose during intraperitoneal glucose tolerance testing, GEP44 vs Ex4 [11] |
| --- | --- | --- | --- | --- | --- | --- | --- | --- | --- | --- | --- | --- | --- | --- | --- | --- | --- | --- | --- |
| N=C(N)NCCC[C@H](NC(=O)CC1(CC(=O)N2CCN(C3c4ccccc4NC(=O)c4ccccc43)CC2)CCCC1)C(=O)NCCn1c(=O)n(-c2ccccc2)n(-c2ccccc2)c1=O (stereo partly shown) [BIIE0246, reference compound] | blocked GEP44 agonism | blocked GEP44 agonism | – | – | – | – | – | – | – | – | – | – | – | – | – | – | – | – | – |
| H[dS]QGTFTSDLS[Lys(N3)]YLEEEAVREFIAWLKNGGPSRHYLNLVTRQRY-NH2 [GEP44] | – | – | −58 | −81.4 | −84 | > 88 | robust reduction of FI; also recorded: robust reduction of food intake | confirmed glucoregulation | capable of stimulating insulin release | slowed the fall in cytokine-induced OCR | significantly increased | more sustained vs. Ex-4 | stimulate cAMP production | stimulated GSIS; also recorded: significantly increased | stimulate cAMP production | sustained weight loss | reduced fasting blood glucose; also recorded: significant reduction in fasting blood glucose | reduced food intake | stronger reductions in blood glucose |

From patent US12384825B2, “Monomeric peptide multi-agonist targeting the GLP1 receptor and NPY receptors” (Syracuse University, priority 2019, dated 2025)
